Where two headings read alike, the source gives them in different places.
Experiments:
OR10a = test system: OR10a; set-up: method as in earlier work; conditions: DoOR database value, ref DoOR, cited from earlier work
OR13a = test system: OR13a; set-up: method as in earlier work; conditions: DoOR database value, ref DoOR, cited from earlier work
OR49b = test system: OR49b; set-up: method as in earlier work; conditions: DoOR database value, ref DoOR, cited from earlier work
OR47a = test system: OR47a; set-up: method as in earlier work; conditions: DoOR database value, ref DoOR, cited from earlier work
OR98a = test system: OR98a; set-up: method as in earlier work; conditions: DoOR database value, ref DoOR, cited from earlier work
Drosophila OR47a = molecular target: T1, Drosophila OR47a (Drosophila melanogaster, UniProt P81921); assay: Calcium ion fluorescence (GCaMP6) assay, OR47a stable HEK293 cell line; type: cell-based; conditions: for OR47a response (VUAA1-normalized) at 1 μM / OR47a response (VUAA1-normalized) at 10 μM / OR47a response (VUAA1-normalized) at 100 μM / Average response / response intensity: OR47a cell line; for Average response: mean of biological replicates; for response intensity: of VUAA1 response
T1 construct: expressed in transfected cells
T1 sequence (P81921 1-385): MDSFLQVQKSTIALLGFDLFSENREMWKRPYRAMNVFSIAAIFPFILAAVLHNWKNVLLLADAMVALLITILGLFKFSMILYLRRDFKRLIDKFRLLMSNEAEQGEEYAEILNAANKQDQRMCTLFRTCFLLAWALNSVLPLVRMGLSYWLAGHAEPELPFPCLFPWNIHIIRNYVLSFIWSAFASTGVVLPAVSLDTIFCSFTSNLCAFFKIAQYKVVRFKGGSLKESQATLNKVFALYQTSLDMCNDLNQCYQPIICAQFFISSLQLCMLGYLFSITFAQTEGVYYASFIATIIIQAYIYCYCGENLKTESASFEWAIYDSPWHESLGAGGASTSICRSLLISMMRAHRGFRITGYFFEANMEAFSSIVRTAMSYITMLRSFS
T1 sequence (Q9VNB5 1-486 partner): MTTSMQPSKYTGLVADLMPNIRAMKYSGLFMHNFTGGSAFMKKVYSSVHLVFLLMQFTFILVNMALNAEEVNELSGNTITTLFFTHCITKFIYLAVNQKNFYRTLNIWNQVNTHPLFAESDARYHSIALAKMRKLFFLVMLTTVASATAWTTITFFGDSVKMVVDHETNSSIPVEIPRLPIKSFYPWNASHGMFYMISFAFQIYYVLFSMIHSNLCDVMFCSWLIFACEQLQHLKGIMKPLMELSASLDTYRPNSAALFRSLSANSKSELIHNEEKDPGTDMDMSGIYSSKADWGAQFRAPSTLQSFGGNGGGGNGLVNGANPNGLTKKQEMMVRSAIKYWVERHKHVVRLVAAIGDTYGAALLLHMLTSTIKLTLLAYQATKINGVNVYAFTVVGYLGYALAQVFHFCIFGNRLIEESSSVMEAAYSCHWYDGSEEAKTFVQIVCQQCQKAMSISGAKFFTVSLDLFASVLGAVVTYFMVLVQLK
In short: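 Responses are VUAA1-normalized ΔF: each VOC-evoked calcium signal, (FMAX−F0)/F0 over 30 s after injection, divided by the same line's mean 50 µM VUAA1 response. Cells were doxycycline-induced HEK293 with GCaMP6 and the cognate Drosophila OR, in HEPES buffer pH 7.3; ligands tested 0.01–100 μM.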

OR85b = test system: OR85b; set-up: method as in earlier work; conditions: DoOR database value, ref DoOR, cited from earlier work
[1] = ligand concentration 1 (unit not given), threshold 0.05, below shown as 0
[2] = ligand concentration 10 (unit not given), threshold 0.05, below shown as 0
[3] = ligand concentration 100 (unit not given), threshold 0.05, below shown as 0
[4] = HEK293, read-out: OR47a response (VUAA1-normalized response)
[5] = HEK293, read-out: OR47a Average response (VUAA1-normalized)
[6] = concentration 1, normalized fluorescence change, values below 0.05 threshold given as 0
[7] = concentration 10, normalized fluorescence change, values below 0.05 threshold given as 0
[8] = concentration 100, normalized fluorescence change, values below 0.05 threshold given as 0

Structure (SMILES) | Average response (Drosophila OR47a; odorant cc. 1 µM) | Average response (Drosophila OR47a; odorant cc. 10 µM) | Average response (Drosophila OR47a; odorant cc. 100 µM) | DF norm AVERAGE OR47a (Drosophila OR47a; [1]) | DF norm AVERAGE OR47a (Drosophila OR47a; [2]) | DF norm AVERAGE OR47a (Drosophila OR47a; [3]) | OR10a DoOR response (OR10a) | OR13a DoOR response (OR13a) | OR49b DoOR response (OR49b) | OR47a DoOR response (OR47a) | OR98a DoOR response (OR98a) | activation at 1 µM (Drosophila OR47a; [4]) [%] | activation at 10 µM (Drosophila OR47a; [4]) [%] | activation at 100 µM (Drosophila OR47a; [4]) [%] | OR85b DoOR response (OR85b) | activation at 1 µM (Drosophila OR47a; [5]) [%] | activation at 10 µM (Drosophila OR47a; [5]) [%] | activation at 100 µM (Drosophila OR47a; [5]) [%] | DF norm AVERAGE OR47a (Drosophila OR47a; [6]) | DF norm AVERAGE OR47a (Drosophila OR47a; [7]) | also measured
OCCc1ccccc1 [phenethyl alcohol] | 0.0564 | 0.0644 | 0.057 | 0.05643 | 0.06438 | 0.05701 | – | – | – | – | – | – | – | – | – | – | – | – | – | – | OR10a DoOR response (OR10a; OR10a): 0.014; OR13a DoOR response (OR13a; OR13a): 0.12; OR49b DoOR response (OR49b; OR49b): 0.09; OR47a DoOR response (OR47a; OR47a): 0.009; OR98a DoOR response (OR98a; OR98a): -0.01; OR47a response (VUAA1-normalized) at 1 μM (Drosophila OR47a; VOC concentration 1 μM): 0.0564; OR47a response (VUAA1-normalized) at 10 μM (Drosophila OR47a; VOC concentration 10 μM): 0.0644; OR47a response (VUAA1-normalized) at 100 μM (Drosophila OR47a; VOC concentration 100 μM): 0.057; OR85b DoOR response (OR85b; OR85b): 0.006
O=Cc1ccccc1 [benzaldehyde] | 0.03 | 0.00 | 0.00 | 0 | 0 | 0 | 0.22 | 0.025 | 0.09 | 0.06 | 0.13 | 0 | 0 | 0 | 0.07 | – | – | – | – | – | –
CC(=O)OCCC(C)C [isopentyl acetate] | 0.00 | 0.12 | 0.18 | 0 | 0.1209 | 0.1752 | 0.42 | 0.15 | 0.027 | 0.41 | 0.64 | 0 | 12 | 18 | 0.34 | 0 | 12 | 18 | – | – | response intensity (Drosophila OR47a; 10 μM): 12%; response intensity (Drosophila OR47a; 100 μM): 18%
Cc1ccc(O)cc1 [4-methylphenol] | 0.10 | 0.0217 | 0.0542 | – | – | – | 0.24 | 0.019 | 0.43 | -0.037 | 0.085 | 10 | 0 | 5.42 | 0.37 | – | – | – | 0.1 | 0 | DF norm AVERAGE OR47a (Drosophila OR47a; [8]): 0.05422
COC(=O)c1ccccc1O [methyl salicylate] | 0.11 | 0.00759 | 0.14 | 0.1126 | 0 | 0.1364 | – | – | – | – | – | – | – | – | – | 11 | 1 | 14 | – | – | OR10a DoOR response (OR10a; OR10a): 0.75; OR13a DoOR response (OR13a; OR13a): 0.07; OR49b DoOR response (OR49b; OR49b): 0.05; OR47a DoOR response (OR47a; OR47a): -0.032; OR98a DoOR response (OR98a; OR98a): 0.034; OR47a response (VUAA1-normalized) at 1 μM (Drosophila OR47a; VOC concentration 1 μM): 0.11; OR47a response (VUAA1-normalized) at 10 μM (Drosophila OR47a; VOC concentration 10 μM): 0.00; OR47a response (VUAA1-normalized) at 100 μM (Drosophila OR47a; VOC concentration 100 μM): 0.14; OR85b DoOR response (OR85b; OR85b): 0.009
CCOC(=O)CC [ethyl propionate] | 0.00 | 0.0134 | 0.0175 | 0 | 0 | 0 | 0.064 | 0.034 | 0.017 | 0.16 | 0.08 | 0 | 0 | 0 | 0.066 | – | – | – | – | – | –
CCOC(=O)c1ccccc1 [ethyl benzoate] | 0.0468 | 0.00 | 0.10 | 0 | 0 | 0.09883 | 0.68 | 0.043 | 0.002 | 0.06 | 0.78 | 0 | 0 | 10 | -0.014 | 5 | 0 | 10 | – | – | –
CCCCOC(C)=O [butyl acetate] | – | – | – | – | – | – | 0.27 | 0.31 | 0.035 | 0.77 | 0.70 | – | – | – | 0.78 | – | – | – | – | – | –
C=C(C)[C@H]1CC=C(C)CC1 [(R)-(+)-limonene] | 0.05 | 0.0529 | 0.00 | – | – | – | 0.07 | 0.057 | 0.03 | – | 0.085 | – | – | – | 0.034 | – | – | – | 0 | 0.05286 | OR47a response (VUAA1-normalized response) (Drosophila OR47a; VOC concentration 1 μM): 0.00; OR47a response (VUAA1-normalized response) (Drosophila OR47a; VOC concentration 10 μM): 0.0529; OR47a response (VUAA1-normalized response) (Drosophila OR47a; VOC concentration 100 μM): 0.00; DF norm AVERAGE OR47a (Drosophila OR47a; [8]): 0
CCCCCCCO [1-heptanol] | 0.00 | 0.00 | 0.0219 | – | – | – | – | 0.28 | – | 0.095 | – | 0 | 0 | 0 | – | – | – | – | 0 | 0 | DF norm AVERAGE OR47a (Drosophila OR47a; [8]): 0
